Data from publication PMC8608967, “KDS2010, a Newly Developed Reversible MAO-B Inhibitor, as an Effective Therapeutic Candidate for Parkinson’s Disease” (Neurotherapeutics, 2021).
Where two headings read alike, the source gives them in different places.

Key:
[1] = biological target: T1, human recombinant MAO-A (hMAO-A) (Homo sapiens, UniProt P21397); assay: In vitro MAO-A enzyme assay (H2O2 release, absorbance 570 nm); assay type: biochemical; conditions: substrate p-tyramine, read-out: Inhibition (IC50) MAO-A
T1 construct: purchased Sigma Aldrich
T1 sequence (P21397 1-527): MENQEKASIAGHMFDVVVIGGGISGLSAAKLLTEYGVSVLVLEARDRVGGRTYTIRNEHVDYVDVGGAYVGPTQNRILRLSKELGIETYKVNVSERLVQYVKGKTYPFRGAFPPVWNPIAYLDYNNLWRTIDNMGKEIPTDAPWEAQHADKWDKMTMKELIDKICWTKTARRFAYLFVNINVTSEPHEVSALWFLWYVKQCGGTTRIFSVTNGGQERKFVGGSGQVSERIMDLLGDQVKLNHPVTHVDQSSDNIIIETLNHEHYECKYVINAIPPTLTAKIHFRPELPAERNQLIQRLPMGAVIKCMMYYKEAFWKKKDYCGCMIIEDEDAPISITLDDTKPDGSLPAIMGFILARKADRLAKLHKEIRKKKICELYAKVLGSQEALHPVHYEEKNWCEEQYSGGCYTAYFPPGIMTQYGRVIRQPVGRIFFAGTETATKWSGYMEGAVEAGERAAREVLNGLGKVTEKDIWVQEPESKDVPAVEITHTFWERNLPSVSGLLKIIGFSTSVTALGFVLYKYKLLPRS
Procedure: (§1) In brief, human recombinant MAO-A (hMAO-A) and MAO-B (hMAO-B) (Sigma Aldrich) were diluted in 50 mM phosphate buffer (~ 0.3 μg MAO-A protein/well or ~ 2.5 μg MAO-B protein/well), and the test compound was added in DMSO to a final concentration from 0.1 nM to 10 μM. The amount of hydrogen peroxide (H2O2) released after addition of enzyme substrate (p-tyramine for MAO-A or benzylamine for MAO-B) was quantified by measuring the absorbance increase at 570 nm on a microplate reader.

[2] = biological target: T2, human recombinant MAO-B (hMAO-B) (Homo sapiens, UniProt P27338); assay: In vitro MAO-B enzyme assay (H2O2 release, absorbance 570 nm); assay type: biochemical; conditions: for IC50: hMAO-B, substrate benzylamine, read-out: Inhibition (IC50) MAO-B; for SI (selectivity index), IC50(MAO-A)/IC50(MAO-B): selectivity for MAO-B isoform
T2 construct: purchased Sigma Aldrich
T2 sequence (P27338 1-520): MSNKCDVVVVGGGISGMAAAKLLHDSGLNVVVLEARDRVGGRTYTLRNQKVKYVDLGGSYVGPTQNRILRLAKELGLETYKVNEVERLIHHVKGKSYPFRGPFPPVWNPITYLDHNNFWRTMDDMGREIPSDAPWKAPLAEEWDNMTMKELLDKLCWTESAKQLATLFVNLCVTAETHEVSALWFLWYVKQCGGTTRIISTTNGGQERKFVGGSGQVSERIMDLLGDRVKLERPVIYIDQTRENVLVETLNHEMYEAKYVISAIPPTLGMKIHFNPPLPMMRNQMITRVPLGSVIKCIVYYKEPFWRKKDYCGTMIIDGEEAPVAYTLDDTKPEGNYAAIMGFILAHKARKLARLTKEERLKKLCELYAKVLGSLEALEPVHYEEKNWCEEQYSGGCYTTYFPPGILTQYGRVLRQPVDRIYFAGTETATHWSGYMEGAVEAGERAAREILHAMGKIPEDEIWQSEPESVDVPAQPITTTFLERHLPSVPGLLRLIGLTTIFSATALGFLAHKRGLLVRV
Procedure: as §1

[3] = biological target: T1, human recombinant MAO-A (hMAO-A); conditions: ref Park, JH. et al. Science Advances. 5(3), eaav0136 (2019), read-out: Inhibition (IC50) MAO-A; cited from earlier work
[4] = biological target: T2, human recombinant MAO-B (hMAO-B); conditions: cited from earlier work; for IC50: read-out: Inhibition (IC50) MAO-B; for SI (selectivity index), IC50(MAO-A)/IC50(MAO-B): selectivity for MAO-B isoform
[5] = system: MPTP-induced PD mouse model; assay: MPTP mouse model: vertical grid test and coat hanger test; assay type: in vivo; conditions: MPTP mice; long-term (30-day) treatment, 10 mg/kg/day oral
Procedure: Group allocation and outcome assessment, but not the conduct of experiments and data analysis, were performed in a blinded manner. Throughout the study, confounders were not controlled. An acclimation period of 7 days was allowed for animals to stabilize in a new environment before model induction. […] Treatment drugs were dissolved in 100 μL of water and total dose (in mg) was calculated according to individual body weight (in kg).
The MPTP model was established using the acute regimen of four intraperitoneal (i.p.) injections of MPTP-HCl (M0896, Sigma Aldrich, 2 mg/mL in saline, 20 mg/kg for one injection) at 2-h intervals.
Motor deficits of the MPTP-induced PD mouse model were assessed using the vertical grid test as described in the previous study [23]. Briefly, after 2 days of habituation to the testing apparatus, individual mice were gently placed 3 cm from the top, facing upward, and allowed to turn around and climb down. We also performed a coat hanger test as described [24–26]. Briefly, a mouse was gently hung on the middle of a coat hanger and allowed to ascend to the top. Performance was graded as follows: 0, falling off the hanger within 20 s; 1, moving to the side-bar of the hanger; 2, reaching the side-bar of the hanger; 3, climbing the side-bar of the hanger; 4, moving to the top of the hanger; 5, climbing and reaching the safe zone. The test was performed twice and each trial lasted a maximum of 3 min.

[6] = hMAO-B, ref Park, JH. et al. Science Advances. 5(3), eaav0136 (2019)
[7] = ref Park, JH. et al. Science Advances. 5(3), eaav0136 (2019)

| Structure (SMILES) | IC50 [1] [µM] | IC50 [2] [µM] | melting point [°C] | SI (selectivity index), IC50(MAO-A)/IC50(MAO-B) [2] | IC50 [3] [µM] | other results |
| --- | --- | --- | --- | --- | --- | --- |
| CS(=O)(=O)O.NC(=O)CNCc1ccc(-c2ccccc2)cc1 [Compound 17a] | > 100 | > 10 | 233 to 236 | – | – | – |
| NC(=O)CNCc1ccc(-c2ccc(F)cc2)cc1 [Compound 17d] | > 100 | > 10 | 238 to 242 | – | – | – |
| NC(=O)CNCc1ccc(-c2cccc(Cl)c2)cc1 [Compound 17f] | > 100 | 1.56 ± 0.071 | 165 to 168 | > 64 | – | – |
| NC(=O)CNCc1ccc(-c2ccc(Cl)cc2)cc1 [Compound 17g] | > 100 | 1.43 ± 0.1 | 262 to 266 | > 70 | – | – |
| NC(=O)CNCc1ccc(-c2cccc(C(F)(F)F)c2)cc1 [Compound 17i] | > 100 | 0.999 ± 0.059 | 168 to 169 | > 100 | – | – |
| NC(=O)CNCc1ccc(-c2ccc(C(F)(F)F)cc2)cc1 [Compound 17j] | > 100 | 0.121 ± 0.08 | 255 to 256 | > 826 | – | fold increase in the IC50 for MAO-B inhibition versus 18j (KDS2010) ([2]; substitution of CH3 with H at X): 15 fold |
| NC(=O)CNCc1ccc(-c2cccc(OC(F)(F)F)c2)cc1 [Compound 17k] | > 100 | 0.323 ± 0.088 | 152 to 156 | > 310 | – | – |
| NC(=O)CNCc1ccc(-c2ccc(OC(F)(F)F)cc2)cc1 [Compound 17l] | > 100 | 0.137 ± 0.07 | 217 to 220 | > 730 | – | – |
| COc1ccc(-c2ccc(CNCC(N)=O)cc2)cc1 [Compound 17n] | > 100 | > 10 | 243 to 245 | – | – | – |
| C[C@H](NCc1ccc(-c2ccccc2)cc1)C(N)=O [Compound 18a] | – | – | 252 to 256 | – | > 100 | IC50 [4, 6]: > 10 µM |
| C[C@H](NCc1ccc(-c2ccccc2F)cc1)C(N)=O [Compound 18b] | – | – | 131 to 135 | – | > 100 | SI (selectivity index), IC50(MAO-A)/IC50(MAO-B) [4, 7]: > 12 |
| C[C@H](NCc1ccc(-c2cccc(F)c2)cc1)C(N)=O [Compound 18c] | – | – | 235 to 238 | – | > 100 | SI (selectivity index), IC50(MAO-A)/IC50(MAO-B) [4, 7]: > 27 |
| C[C@H](NCc1ccc(-c2ccc(F)cc2)cc1)C(N)=O [Compound 18d] | – | – | 162 to 164 | – | > 100 | SI (selectivity index), IC50(MAO-A)/IC50(MAO-B) [4, 7]: > 23 |
| C[C@H](NCc1ccc(-c2ccccc2Cl)cc1)C(N)=O [Compound 18e] | – | – | 216 to 220 | – | > 100 | IC50 [4, 6]: > 10 µM |
| C[C@H](NCc1ccc(-c2cccc(Cl)c2)cc1)C(N)=O [Compound 18f] | – | – | 220 to 223 | – | > 100 | IC50 [4, 6]: 0.242 ± 0.008 µM; SI (selectivity index), IC50(MAO-A)/IC50(MAO-B) [4, 7]: > 413 |
| C[C@H](NCc1ccc(-c2ccc(Cl)cc2)cc1)C(N)=O [Compound 18g] | – | – | 220 to 223 | – | > 100 | IC50 [4, 6]: 0.182 ± 0.007 µM; SI (selectivity index), IC50(MAO-A)/IC50(MAO-B) [4, 7]: > 549 |
| C[C@H](NCc1ccc(-c2ccccc2C(F)(F)F)cc1)C(N)=O [Compound 18h] | – | – | 224 to 227 | – | > 100 | IC50 [4, 6]: > 10 µM |
| C[C@H](NCc1ccc(-c2cccc(C(F)(F)F)c2)cc1)C(N)=O [Compound 18i] | – | – | 215 to 217 | – | > 100 | IC50 [4, 6]: 0.316 ± 0.006 µM; SI (selectivity index), IC50(MAO-A)/IC50(MAO-B) [4, 7]: > 316 |
| C[C@H](NCc1ccc(-c2cccc(OC(F)(F)F)c2)cc1)C(N)=O [Compound 18k] | – | – | 209 to 212 | – | > 100 | SI (selectivity index), IC50(MAO-A)/IC50(MAO-B) [4, 7]: > 463 |

| Structure (SMILES) | IC50 [1] [µM] | IC50 [2] [µM] | melting point [°C] | SI (selectivity index), IC50(MAO-A)/IC50(MAO-B) [2] | IC50 [3] [µM] | other results |
| --- | --- | --- | --- | --- | --- | --- |
| C[C@H](NCc1ccc(-c2ccc(OC(F)(F)F)cc2)cc1)C(N)=O [Compound 18l] | – | – | 256 to 259 | – | > 100 | SI (selectivity index), IC50(MAO-A)/IC50(MAO-B) [4, 7]: > 1,020 |
| COc1ccc(-c2ccc(CN[C@@H](C)C(N)=O)cc2)cc1 [Compound 18n] | > 100 | 3.33 ± 0.054 | 231 to 233 | > 30 | – | – |
| CC(C)Cc1ccc(-c2ccc(CN[C@@H](C)C(N)=O)cc2)cc1 [Compound 18o] | > 100 | 0.325 ± 0.09 | 253 to 256 | > 307 | – | – |
| CC(NCc1ccc(-c2ccc(C(F)(F)F)cc2)cc1)C(N)=O (stereo not shown) [Compound 19j] | – | – | – | – | > 100 | – |
| CC[C@H](NCc1ccc(-c2ccc(C(F)(F)F)cc2)cc1)C(N)=O [Compound 20j] | > 100 | 0.242 ± 0.008 | 253 to 256 | > 413 | – | – |
| CC[C@H](NCc1ccc(-c2ccc(OC(F)(F)F)cc2)cc1)C(N)=O [Compound 20l] | > 100 | 0.099 ± 0.005 | – | > 1,010 | – | – |
| CC(C)[C@H](NCc1ccc(-c2cccc(C(F)(F)F)c2)cc1)C(N)=O [Compound 21i] | > 100 | > 10 | 274 to 278 | – | – | – |
| CC(C)[C@H](NCc1ccc(-c2ccc(C(F)(F)F)cc2)cc1)C(N)=O [Compound 21j] | > 100 | 4.07 ± 0.15 | 266 to 267 | > 25 | – | – |
| CC(C)C[C@H](NCc1ccc(-c2cccc(F)c2)cc1)C(N)=O [Compound 22c] | > 100 | > 10 | 264 to 265 | – | – | – |
| CC(C)C[C@H](NCc1ccc(-c2cccc(C(F)(F)F)c2)cc1)C(N)=O [Compound 22i] | > 100 | > 10 | 239 to 243 | – | – | – |
| CC(C)C[C@H](NCc1ccc(-c2ccc(C(F)(F)F)cc2)cc1)C(N)=O [Compound 22j] | > 100 | 5.3 ± 0.09 | 267 to 270 | > 19 | – | – |
| CC(C)C[C@H](NCc1ccc(-c2cccc(OC(F)(F)F)c2)cc1)C(N)=O [Compound 22k] | > 100 | > 10 | 232 to 233 | – | – | – |
| COc1cccc(-c2ccc(CN[C@@H](CC(C)C)C(N)=O)cc2)c1 [Compound 22m] | > 100 | > 10 | 240 to 242 | – | – | – |
| CCC(C)[C@H](NCc1ccc(-c2cccc(F)c2)cc1)C(N)=O (stereo partly shown) [Compound 23c] | > 100 | > 10 | 252 to 255 | – | – | – |
| CCC(C)[C@H](NCc1ccc(-c2cccc(Cl)c2)cc1)C(N)=O (stereo partly shown) [Compound 23f] | > 100 | 5 to 10 | 248 to 250 | – | – | – |
| CCC(C)[C@H](NCc1ccc(-c2ccc(Cl)cc2)cc1)C(N)=O (stereo partly shown) [Compound 23g] | > 100 | > 10 | 260 to 262 | – | – | – |
| CCC(C)[C@H](NCc1ccc(-c2cccc(C(F)(F)F)c2)cc1)C(N)=O (stereo partly shown) [Compound 23i] | > 100 | 5 to 10 | 263 to 265 | – | – | – |
| C[C@H](NCc1ccc(OCc2cccc(F)c2)cc1)C(N)=O [Safinamide, reference compound] | – | – | – | – | – | vertical grid test: time to turn [5]: reduced; vertical grid test: total time [5]: reduced |
| CC(=O)N[C@H]1CC(=O)N(c2ccc(OCc3cccc(F)c3)cc2)C1 [Sembragiline, reference compound] | 3.85 | 0.015 ± 0.005 | – | 653 | – | IC50 ([4]; positive control, literature value, ref Borroni, E. et al. J. Pharmacol. Exp. Ther. 362, 413–423 (2017)): 0.006 ± 0.001 µM |
